# Values of other authors in PubChem BioAssay AID1259409 (Chemical Carcinogenesis Research Information System (CCRIS), 2018).
# System: rodent chemically induced tumor inhibition, incidence and multiplicity
# Test: CCRIS tumor inhibitor studies
smiles,measurement,setting,value
C[C@]12CC[C@H](O)CC1=CC[C@@H]1[C@@H]2CC[C@]2(C)C(=O)CC[C@@H]12,"tumour outcome (control, treated, inhibition, significance)","Carcinogen: N-METHYL-N-NITROSOUREA, 684-93-5, Dose [Inhibitor]: 0, 5 PPM IN DIET FOR DURATION OF STUDY BEGINNING 1 WK PRIOR TO CARCINOGEN DOSE (STUDY DURATION: 109 D), Route [Inhibitor]: ORAL, Species: RAT, Strain/Sex: SPRAGUE-DAWLEY/FEMALE, Target Tissue: Type of Lesion: MAMMARY GLAND: TUMOR, Dose [Carcinogen]: 50 MG/KG BW IN ACIDIFIED SALINE (PH 5.0) ONCE, Promoter: NONE USED","100%, 89%, 11%, not calculated"
same,"tumour outcome (control, treated, inhibition, significance)","Carcinogen: N-METHYL-N-NITROSOUREA, 684-93-5, Dose [Inhibitor]: 0, 24 PPM IN DIET FOR DURATION OF STUDY BEGINNING 1 WK PRIOR TO CARCINOGEN DOSE (STUDY DURATION: 109 D), Route [Inhibitor]: ORAL, Species: RAT, Strain/Sex: SPRAGUE-DAWLEY/FEMALE, Target Tissue: Type of Lesion: MAMMARY GLAND: TUMOR, Dose [Carcinogen]: 50 MG/KG BW IN ACIDIFIED SALINE (PH 5.0) ONCE, Promoter: NONE USED","100%, 80%, 20%, not calculated"
same,"tumour outcome (control, treated, inhibition, significance)","Carcinogen: N-METHYL-N-NITROSOUREA, 684-93-5, Dose [Inhibitor]: 0, 120 PPM IN DIET FOR DURATION OF STUDY BEGINNING 1 WK PRIOR TO CARCINOGEN DOSE (STUDY DURATION: 109 D), Route [Inhibitor]: ORAL, Species: RAT, Strain/Sex: SPRAGUE-DAWLEY/FEMALE, Target Tissue: Type of Lesion: MAMMARY GLAND: TUMOR, Dose [Carcinogen]: 50 MG/KG BW IN ACIDIFIED SALINE (PH 5.0) ONCE, Promoter: NONE USED","100%, 80%, 20%, not calculated"
same,"tumour outcome (control, treated, inhibition, significance)","Carcinogen: N-METHYL-N-NITROSOUREA, 684-93-5, Dose [Inhibitor]: 0, 400 MG/KG DIET FOR DURATION OF STUDY BEGINNING 1 WK PRIOR TO CARCINOGEN DOSE (STUDY DURATION: 187 D), Route [Inhibitor]: ORAL, Species: RAT, Strain/Sex: SPRAGUE-DAWLEY/FEMALE, Target Tissue: Type of Lesion: MAMMARY GLAND: TUMOR, Dose [Carcinogen]: 35 MG/KG BW ONCE, Promoter: NONE USED","85%, 0%, 100%, p<0.01"
same,"tumour outcome (control, treated, inhibition, significance)","Carcinogen: N-METHYL-N-NITROSOUREA, 684-93-5, Dose [Inhibitor]: 0, 600 PPM IN DIET FOR DURATION OF STUDY BEGINNING 1 WK PRIOR TO CARCINOGEN DOSE (STUDY DURATION: 109 D), Route [Inhibitor]: ORAL, Species: RAT, Strain/Sex: SPRAGUE-DAWLEY/FEMALE, Target Tissue: Type of Lesion: MAMMARY GLAND: TUMOR, Dose [Carcinogen]: 50 MG/KG BW IN ACIDIFIED SALINE (PH 5.0) ONCE, Promoter: NONE USED","100%, 40%, 60%, not calculated"
same,"tumour outcome (control, treated, inhibition, significance)","Carcinogen: N-METHYL-N-NITROSOUREA, 684-93-5, Dose [Inhibitor]: 0, 800 MG/KG DIET FOR DURATION OF STUDY BEGINNING 1 WK PRIOR TO CARCINOGEN DOSE (STUDY DURATION: 187 D), Route [Inhibitor]: ORAL, Species: RAT, Strain/Sex: SPRAGUE-DAWLEY/FEMALE, Target Tissue: Type of Lesion: MAMMARY GLAND: TUMOR, Dose [Carcinogen]: 35 MG/KG BW ONCE, Promoter: NONE USED","70%, 0%, 100%, p<0.01"
same,"tumour outcome (control, treated, inhibition, significance)","Carcinogen: N-NITROSOMORPHOLINE, 59-89-2, Dose [Inhibitor]: 0.25% IN DIET (STUDY DURATION: 51 WK), Route [Inhibitor]: ORAL, Species: RAT, Strain/Sex: SPRAGUE-DAWLEY/MALE, Target Tissue: Type of Lesion: LIVER: HEMANGIOSARCOMA, Dose [Carcinogen]: 120 MG/L IN DRINKING WATER FOR FIRST 7 WK OF STUDY, Promoter: NONE USED","8/35 (23%), 1/35 (3%), 88%, p<0.05"
same,"tumour outcome (control, treated, inhibition, significance)","Carcinogen: N-NITROSOMORPHOLINE, 59-89-2, Dose [Inhibitor]: 0.25% IN DIET (STUDY DURATION: 51 WK), Route [Inhibitor]: ORAL, Species: RAT, Strain/Sex: SPRAGUE-DAWLEY/MALE, Target Tissue: Type of Lesion: LIVER: HEPATOCELLULAR ADENOMA, MIXED CELL, Dose [Carcinogen]: 120 MG/L IN DRINKING WATER FOR FIRST 7 WK OF STUDY, Promoter: NONE USED","32/35 (91%), 28/35 (80%), 14%, not calculated"
same,"tumour outcome (control, treated, inhibition, significance)","Carcinogen: N-NITROSOMORPHOLINE, 59-89-2, Dose [Inhibitor]: 0.25% IN DIET (STUDY DURATION: 51 WK), Route [Inhibitor]: ORAL, Species: RAT, Strain/Sex: SPRAGUE-DAWLEY/MALE, Target Tissue: Type of Lesion: LIVER: HEPATOCELLULAR CARCINOMA, Dose [Carcinogen]: 120 MG/L IN DRINKING WATER FOR FIRST 7 WK OF STUDY, Promoter: NONE USED","33%, 20%, 39%, not calculated"
same,"tumour outcome (control, treated, inhibition, significance)","Carcinogen: N-methyl-N-nitrosourea, 684-93-5, Dose [Inhibitor]: 125 mg/kg in diet for 6 wks starting 6 wks after administration of carcinogen, Route [Inhibitor]: Oral, Species: Rat, Strain/Sex: Sprague Dawley/Female, Target Tissue: Type of Lesion: Mammary gland: tumors, Dose [Carcinogen]: 50 mg/kg injected once in 50 d old mice, tumors allowed to develop for 6 wks before inhibitor administration (Test mater, Promoter: None used","93.3%, 96.7%, -0.03%, not significant"
same,"tumour outcome (control, treated, inhibition, significance)","Carcinogen: N-methyl-N-nitrosourea, 684-93-5, Dose [Inhibitor]: 1000 mg/kg in diet for 6 wks starting 6 wks after administration of carcinogen, Route [Inhibitor]: Oral, Species: Rat, Strain/Sex: Sprague Dawley/Female, Target Tissue: Type of Lesion: Mammary gland: tumors, Dose [Carcinogen]: 50 mg/kg injected once in 50 d old mice, tumors allowed to develop for 6 wks before inhibitor administration (Test mater, Promoter: None used","93.3%, 76.7%, 17.8%, not significant"
same,"tumour outcome (control, treated, inhibition, significance)","Carcinogen: NONE USED, Dose [Inhibitor]: 0, 0.45% IN DIET FOR DURATION OF STUDY (STUDY DURATION: 84 WK), Route [Inhibitor]: ORAL, Species: RAT, Strain/Sex: F344/MALE, Target Tissue: Type of Lesion: TESTES: LEYDIG CELL TUMOR, Promoter: NONE USED","8/8 (100%), 0/13 (0%), 100%, p<0.005"
same,"tumour outcome (control, treated, inhibition, significance)","Carcinogen: NONE USED, Dose [Inhibitor]: 450 MG/KG IN SESAME OIL 3/WK BEGINNING AT 5-6 WK OF AGE AND CONTINUING FOR DURATION OF STUDY (STUDY DURATION: 18 MO), Route [Inhibitor]: INTRAGASTRIC, Species: MOUSE, Strain/Sex: C3H-A/A/FEMALE, Target Tissue: Type of Lesion: MAMMARY GLAND: TUMOR, Promoter: NONE USED","21/78 (27%), 9/77 (12%), 56%, p<0.05"
same,"tumour outcome (control, treated, inhibition, significance)","Carcinogen: NONE USED, Dose [Inhibitor]: 450 MG/KG IN SESAME OIL 3/WK BEGINNING AT 5-6 WK OF AGE AND CONTINUING FOR DURATION OF STUDY (STUDY DURATION: 18 MO), Route [Inhibitor]: INTRAGASTRIC, Species: MOUSE, Strain/Sex: C3H-AVY/A/FEMALE, Target Tissue: Type of Lesion: MAMMARY GLAND: TUMOR, Promoter: NONE USED","19/27 (70%), 5/23 (22%), 68%, p<0.005"
same,"tumour outcome (control, treated, inhibition, significance)","Carcinogen: NONE USED, Dose [Inhibitor]: 450 MG/KG IN SESAME OIL 3/WK FOR DURATION OF STUDY (STUDY DURATION: 9 MO), Route [Inhibitor]: INTRAGASTRIC, Species: MOUSE, Strain/Sex: C3H-AVY/A/FEMALE, Target Tissue: Type of Lesion: MAMMARY GLAND: TUMOR, Promoter: NONE USED","14/26 (54%), 0/24 (0%), 100%, not calculated"
